Counter-ions that a name gives are not always drawn. Bounds are passed on as bounds.

Chain of FGFR2 (P21802 22-821): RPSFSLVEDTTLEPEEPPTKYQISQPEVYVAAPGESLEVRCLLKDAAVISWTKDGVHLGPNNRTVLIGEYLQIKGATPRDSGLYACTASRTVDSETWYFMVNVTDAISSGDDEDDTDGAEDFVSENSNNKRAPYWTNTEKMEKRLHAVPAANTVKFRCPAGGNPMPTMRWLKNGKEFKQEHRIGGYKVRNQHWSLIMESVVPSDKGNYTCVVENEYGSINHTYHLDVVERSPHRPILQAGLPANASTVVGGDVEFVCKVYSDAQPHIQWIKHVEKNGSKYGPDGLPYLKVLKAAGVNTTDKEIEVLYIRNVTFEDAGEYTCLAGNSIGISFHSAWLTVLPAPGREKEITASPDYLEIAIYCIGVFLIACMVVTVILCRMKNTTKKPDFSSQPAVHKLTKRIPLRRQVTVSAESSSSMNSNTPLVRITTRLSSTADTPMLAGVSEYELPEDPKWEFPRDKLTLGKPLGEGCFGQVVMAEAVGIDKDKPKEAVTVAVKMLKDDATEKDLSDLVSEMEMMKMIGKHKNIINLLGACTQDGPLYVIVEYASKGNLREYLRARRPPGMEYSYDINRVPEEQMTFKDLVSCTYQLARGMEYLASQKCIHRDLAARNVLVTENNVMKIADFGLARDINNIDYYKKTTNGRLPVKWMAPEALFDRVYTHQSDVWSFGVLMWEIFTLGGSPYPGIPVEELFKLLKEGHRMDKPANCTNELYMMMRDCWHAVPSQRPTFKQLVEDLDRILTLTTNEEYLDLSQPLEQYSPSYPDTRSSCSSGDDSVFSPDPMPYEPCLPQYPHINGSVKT

The target of this assay is FGFR2 (Homo sapiens, UniProt P21802). In words: FGFR2 Kinase Protocol - Condition 2 (Reaction Biology HotSpot radiometric kinase assay, no preincubation). The conditions noted are these: poly[Glu:Tyr] (4:1) 0.2 mg/ml, ATP 100 microM, 2 hr room temperature. It counts as biochemical. In short, it runs like this:
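Ten-point, 3-fold compound dilutions were tested against wildtype or V564F FGFR2 with 100 µM ATP (33P-labelled), no preincubation, and 0.2 mg/ml poly[Glu:Tyr] (4:1) substrate. After 2 hr at room temperature, incorporation was read on P81 filter paper; IC50 fitted from activity remaining relative to vehicle.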
For the compound `C=CC(=O)N1C[C@@H](n2cc(C#Cc3c(F)cc4[nH]c(C)nc4c3F)c3c(N)ncnc32)C[C@@H]1COC` [Example 107, 1-[(2R,4S)-4-[4-Amino-5-[2-(4,6-difluoro-2-methyl-1H-1,3-benzodiazol-5-yl)ethynyl]pyrrolo[2,3-d]pyrimidin-7-yl]-2-(methoxymethyl)pyrrolidin-1-yl]prop-2-en-1-one], the IC50 is no more than 100 nM.

Compound `C=CC(=O)N1CC[C@H](n2nc(C#Cc3cc4ncn(C)c4c(F)c3Cl)c3c(N)ncnc32)C1` [Example 145, (S)-1-(3-(4-Amino-3-((6-chloro-7-fluoro-1-methyl-1H-benzo[d]imidazol-5-yl)ethynyl)-1H-pyrazolo[3,4-d]pyrimidin-1-yl)pyrrolidin-1-yl)prop-2-en-1-one] gave an IC50 of no more than 100 nM.

In turn, `C=CC(=O)N1C[C@@H](n2cc(C#Cc3cc4ncn(C)c4cc3F)c3c(N)ncnc32)C[C@@H]1COC(F)(F)F` [Example 67, 1-((2R,4S)-4-(4-Amino-5-((6-fluoro-1-methyl-1H-benzo[d]imidazol-5-yl)ethynyl)-7H-pyrrolo[2,3-d]pyrimidin-7-yl)-2-((trifluoromethoxy)methyl)pyrrolidin-1-yl)prop-2-en-1-one] came in with an IC50 of no more than 100 nM.

As for `C=CC(=O)N1CC[C@H](n2nc(C#Cc3cc4ncn(C)c4cc3Cl)c3c(N)ncnc32)C1` [Example 147, 1-[(3S)-3-{4-Amino-3-[2-(6-chloro-1-methyl-1,3-benzodiazol-5-yl)ethynyl]pyrazolo[3,4-d]pyrimidin-1-yl}pyrrolidin-1-yl]prop-2-en-1-one], the concentration for half-maximal inhibition (IC50) is no more than 100 nM.

For `C=CC(=O)N1C[C@@H](n2cc(C#Cc3cc4ncn(CC)c4cc3F)c3c(N)ncnc32)C[C@@H]1COC` [Example 80, 1-[(2R,4S)-4-[4-Amino-5-[2-(1-ethyl-6-fluoro-1,3-benzodiazol-5-yl)ethynyl]pyrrolo[2,3-d]pyrimidin-7-yl]-2-(methoxymethyl)pyrrolidin-1-yl]prop-2-en-1-one], the IC50 is no more than 100 nM.

As for `C=CC(=O)N1C[C@@H](n2nc(C#Cc3cc4ncn(CC)c4cc3Cl)c3c(N)ncnc32)C[C@@H]1C(F)F` [Example 180, 1-((2R,4S)-4-(4-amino-3-((6-chloro-1-ethyl-1H-benzo[d]imidazol-5-yl)ethynyl)-1H-pyrazolo[3,4-d]pyrimidin-1-yl)-2-(difluoromethyl)pyrrolidin-1-yl)prop-2-en-1-one], the IC50 was no more than 100 nM.

In the case of `C=CC(=O)N1C[C@@H](n2nc(C#Cc3cc4ncn(CC)c4c(F)c3Cl)c3c(N)ncnc32)C[C@@H]1COC` [Example 128, 1-[(2R,4S)-4-[4-amino-3-[2-(6-chloro-1-ethyl-7-fluoro-1,3-benzodiazol-5-yl)ethynyl]pyrazolo[3,4-d]pyrimidin-1-yl]-2-(methoxymethyl)pyrrolidin-1-yl]prop-2-en-1-one], the IC50 is no more than 100 nM.

`C=CC(=O)N1C[C@@H](n2nc(C#Cc3cc4nc(C)n(C)c4c(F)c3F)c3c(N)ncnc32)C[C@@H]1COC` [Example 122, 1-[(2R,4S)-4-[4-Amino-3-[2-(6,7-difluoro-1,2-dimethyl-1,3-benzodiazol-5-yl)ethynyl]pyrazolo[3,4-d]pyrimidin-1-yl]-2-(methoxymethyl)pyrrolidin-1-yl]prop-2-en-1-one] showed an IC50 of no more than 100 nM.

As for `C=CC(=O)N1C[C@@H](n2nc(C#Cc3c(F)cc4nn(C)cc4c3F)c3c(N)nccc32)C[C@@H]1COC` [Example 45, 1-((2R,4S)-4-(4-amino-3-((4,6-difluoro-2-methyl-2H-indazol-5-yl)ethynyl)-1H-pyrazolo[4,3-c]pyridin-1-yl)-2-(methoxymethyl)pyrrolidin-1-yl)prop-2-en-1-one], the IC50 fell in the range of 100 to 1000 nM.

Turning to `C=CC(=O)N1C[C@@H](n2nc(C#Cc3cc4ncn(CC)c4cc3F)c3c(N)ncnc32)C[C@@H]1C` [Example 163, 1-((2S,4S)-4-(4-amino-3-((1-ethyl-6-fluoro-1H-benzo[d]imidazol-5-yl)ethynyl)-1H-pyrazolo[3,4-d]pyrimidin-1-yl)-2-methylpyrrolidin-1-yl)prop-2-en-1-one], the IC50 is no more than 100 nM.

The compound `C=CC(=O)N1C[C@@H](n2nc(C#Cc3cc4ncn(CC)c4c(F)c3Cl)c3c(N)nccc32)C[C@@H]1CC#N` [Example 162, 2-[(2R,4S)-4-{4-Amino-3-[2-(6-chloro-1-ethyl-7-fluoro-1,3-benzodiazol-5-yl)ethynyl]pyrazolo[4,3-c]pyridin-1-yl}-1-(prop-2-enoyl)pyrrolidin-2-yl]acetonitrile] gave an IC50 of no more than 100 nM.

`C=CC(=O)N1C[C@@H](n2nc(C#Cc3c(F)cc4nn(C)cc4c3F)c3c(N)ncnc32)C[C@@H]1COC` [Example 44, 1-((2R,4S)-4-(4-amino-3-((4,6-difluoro-2-methyl-2H-indazol-5-yl)ethynyl)-1H-pyrazolo[3,4-d]pyrimidin-1-yl)-2-(methoxymethyl)pyrrolidin-1-yl)prop-2-en-1-one] registered an IC50 of no more than 100 nM.

As to `C=CC(=O)N1C[C@@H](n2nc(C#Cc3c(F)cc4c(nc(C)n4CC)c3F)c3c(N)nccc32)C[C@@H]1COC` [Example 33, 1-((2R,4S)-4-(4-amino-3-((1-ethyl-4,6-difluoro-2-methyl-1H-benzo[d]imidazol-5-yl)ethynyl)-1H-pyrazolo[4,3-c]pyridin-1-yl)-2-(methoxymethyl)pyrrolidin-1-yl)prop-2-en-1-one], the IC50 is no more than 100 nM.

Compound `C=CC(=O)N1CC[C@H](n2cc(C#Cc3cc4ncn(C)c4cc3F)c3c(N)ncnc32)C1` [Example 142, (S)-1-(3-(4-Amino-5-((6-fluoro-1-methyl-1H-benzo[d]imidazol-5-yl)ethynyl)-7H-pyrrolo[2,3-d]pyrimidin-7-yl)pyrrolidin-1-yl)prop-2-en-1-one] registered an IC50 of no more than 100 nM.

For the compound `C=CC(=O)N1CC[C@H](n2nc(C#Cc3cc4ncn(CC)c4c(F)c3F)c3c(N)ncnc32)C1` [Example 153, 1-[(3S)-3-{4-Amino-3-[2-(1-ethyl-6,7-difluoro-1,3-benzodiazol-5-yl)ethynyl]pyrazolo[3,4-d]pyrimidin-1-yl}pyrrolidin-1-yl]prop-2-en-1-one], the IC50 is no more than 100 nM.

For `C=CC(=O)N1C[C@@H](n2cc(C#Cc3c(F)cc4c(ncn4C)c3F)c3c(N)ncnc32)C[C@@H]1COC(F)(F)F` [Example 68, 1-((2R,4S)-4-(4-Amino-5-((4,6-difluoro-1-methyl-1H-benzo[d]imidazol-5-yl)ethynyl)-7H-pyrrolo[2,3-d]pyrimidin-7-yl)-2-((trifluoromethoxy)methyl)pyrrolidin-1-yl)prop-2-en-1-one], the IC50 is no more than 100 nM.

In turn, `C=CC(=O)N1C[C@@H](n2cc(C#Cc3ccc4c(c3)ncn4C)c3c(N)ncnc32)C[C@@H]1COC(F)(F)F` [Example 66, 1-[(2R,4S)-4-[4-Amino-5-[2-(1-methyl-1,3-benzodiazol-5-yl)ethynyl]pyrrolo[2,3-d]pyrimidin-7-yl]-2-[(trifluoromethoxy)methyl]pyrrolidin-1-yl]prop-2-en-1-one] yielded an IC50 of no more than 100 nM.

In the case of `C=CC(=O)N1C[C@@H](n2nc(C#Cc3cc4ncn(CC)c4cc3Cl)c3c(N)ncnc32)C[C@@H]1C` [Example 168, 1-((2S,4S)-4-(4-amino-3-((1-ethyl-6-chloro-1H-benzo[d]imidazol-5-yl)ethynyl)-1H-pyrazolo[3,4-d]pyrimidin-1-yl)-2-methylpyrrolidin-1-yl)prop-2-en-1-one], the IC50 is no more than 100 nM.

With `C=CC(=O)N1C[C@@H](n2nc(C#Cc3ccc4c(c3)ncn4C)c3c(N)nccc32)C[C@@H]1COC(F)(F)F` [Example 58, 1-((2R,4S)-4-(4-Amino-3-((1-methyl-1H-benzo[d]imidazol-5-yl)ethynyl)-1H-pyrazolo[4,3-c]pyridin-1-yl)-2-((trifluoromethoxy)methyl)pyrrolidin-1-yl)prop-2-en-1-one formate], the IC50 was no more than 100 nM.

Regarding `C=CC(=O)N1C[C@@H](n2nc(C#Cc3ccc4c(c3)ncn4C)c3c(N)ncnc32)C[C@@H]1COC(F)(F)F` [Example 56, 1-((2R,4S)-4-(4-Amino-3-((1-methyl-1H-benzo[d]imidazol-5-yl)ethynyl)-1H-pyrazolo[3,4-d]pyrimidin-1-yl)-2-((trifluoromethoxy)methyl)pyrrolidin-1-yl)prop-2-en-1-one], the IC50 is no more than 100 nM.

For the compound `C=CC(=O)N1CC[C@H](n2nc(C#Cc3cc4ncn(C5CC5)c4c(F)c3Cl)c3c(N)ncnc32)C1` [Example 190, 1-[(3S)-3-{4-Amino-3-[2-(6-chloro-1-cyclopropyl-7-fluoro-1,3-benzodiazol-5-yl)ethynyl]pyrazolo[3,4-d]pyrimidin-1-yl}pyrrolidin-1-yl]prop-2-en-1-one], the IC50 is no more than 100 nM.

Compound `C=CC(=O)N1C[C@@H](n2nc(C#Cc3ccc4c(c3)nc(C(F)(F)F)n4C)c3c(N)nccc32)C[C@@H]1COC` [Example 47, 1-((2R,4S)-4-(4-amino-3-((1-methyl-2-(trifluoromethyl)-1H-benzo[d]imidazol-5-yl)ethynyl)-1H-pyrazolo[4,3-c]pyridin-1-yl)-2-(methoxymethyl)pyrrolidin-1-yl)prop-2-en-1-one] showed an IC50 of no more than 100 nM.

In turn, `C=CC(=O)N1C[C@@H](n2cc(C#Cc3c(Cl)cc4c(ncn4CC)c3F)c3c(N)ncnc32)C[C@@H]1COC` [Example 118, 1-1-[(2R,4S)-4-[4-Amino-5-[2-(6-chloro-1-ethyl-4-fluoro-1,3-benzodiazol-5-yl)ethynyl]pyrrolo[2,3-d]pyrimidin-7-yl]-2-(methoxymethyl)pyrrolidin-1-yl]prop-2-en-1-one] came in with an IC50 of no more than 100 nM.

With `C=CC(=O)N1C[C@@H](n2nc(C#Cc3cc4nc(C)n(C)c4cc3Cl)c3c(N)ncnc32)C[C@@H]1COC` [Example 96, 1-[(2R,4S)-4-[4-Amino-3-[2-(6-chloro-1,2-dimethyl-1,3-benzodiazol-5-yl)ethynyl]pyrazolo[3,4-d]pyrimidin-1-yl]-2-(methoxymethyl)pyrrolidin-1-yl]prop-2-en-1-one], the IC50 was no more than 100 nM.

One may read the IC50 as the concentration that inhibits the measured activity by half. Read a high IC50 as weaker potency.

These data come from US20230374015A1, “INHIBITORS OF FIBROBLAST GROWTH FACTOR RECEPTOR KINASES” (Kinnate Biopharma Inc., priority 2020, published 2023).
